Patent publication US6346518B1, “Itraconazole and saperconazole stereoisomers” (Janssen Pharmaceutica N.V., priority 1995, dated 2002)

Assays:
[1] = solubility in water in the absence or presence of 2-hydroxypropyl-β-cyclodextrin (saturated solutions, UV spectrometry); format: physicochemical; conditions: ambient temperature
Experimental: A 10 ml stock solution comprising 0, 2.5, 5, 7.5, 10, 20, 30 or 40% (weight by volume) 2-hydroxypropyl-β-cyclodextrin (M.S.=0.4) was put in a 20 ml tinted vial. To each vial there was added a quantity of itraconazole or saperconazole sufficient to yield a saturated solution. The vials were sonicated for 10 minutes and all vials were checked to ascertain that an undissolved remnant remained Where all the material had dissolved, another quantity of the material was added The vials were closed and protected from light by wrapping them in aluminum foil. The vials were then shaken in an appropriate apparatus. 24Hours later the vials were checked again to ascertain that an undissolved remnant of the material remained and where necessary a further quantity of the material was added. The vials were shaken for at least 72 hours and then allowed to stand until all undissolved material had precipitated. The vials were opened and the pH of the saturated solutions was measured. An aliquot of the supernatant solution was filtered and the amount of dissolved active ingredient was measured by UV spectrometry (255 nm), if necessary after diluting said aliquot to a concentration suitable for UV spectrometry.

Aspergillus spp. = conditions: compared with itraconazole; U.S. Pat. No. 4,916,134; cited from earlier work
[2] = cited from earlier work
[3] = solubility in artificial gastric juice; format: physicochemical; conditions: ambient temperature
Experimental: About 10 mg of either product was added to 100 ml artificial gastric juice (0.2 g NaCL+0.7 ml concentrated HCl diluted to 100 ml) at ambient temperature. The mixture was stirred and a sample was taken from each solution at regular intervals. The amount of dissolved active ingredient was determined following the procedure described in the previous example.

[4] = 2-hydroxypropyl-β-cyclodextrin concentration 2.5%
[5] = 2-hydroxypropyl-β-cyclodextrin concentration 5%
[6] = 2-hydroxypropyl-β-cyclodextrin concentration 7.5%
[7] = 2-hydroxypropyl-β-cyclodextrin concentration 10%
[8] = 2-hydroxypropyl-β-cyclodextrin concentration 20%
[9] = 2-hydroxypropyl-β-cyclodextrin concentration 30%
[10] = 2-hydroxypropyl-β-cyclodextrin concentration 40%

Compound “(−)-[2S-[2α, 4α, 4(S)[[-4-[4-[4-[4-[[2-(2,4-dichlorophenyl-2(1H-1,2,4-triazol-1-ylmethyl)-1,3-dioxolan-4-yl]methoxy]phenyl]-1-piperazinyl]phenyl ]-2,4-dihydro-2-(1-methylpropyl)-3H-1,2,4-triazol-3-one [Compound 2]” has a concentration in water [1, 4] of 3.58 mg/100 ml, a concentration in water [1, 5] of 16.36 mg/100 ml and a concentration in water [1, 6] of 41.39 mg/100 ml. The concentration in water [1, 7] was 78.16 mg/100 ml, the concentration in water [1, 8] was 332 mg/100 ml and the concentration in water [1, 9] was 846 mg/100 ml. The concentration in water [1, 10] was 1720 mg/100 ml.
In the case of `CCC(C)n1ncn(-c2ccc(N3CCN(c4ccc(OCC5COC(Cn6cncn6)(c6ccc(F)cc6F)O5)cc4)CC3)cc2)c1=O` (racemic) [saperconazole, (±)-cis-4-[4-[4-[4-[[2-(2,4-difluorophenyl)-2-(1H-2,4-triazol-1-yl-methyl)-1,3-dioxolan-4-yl]methoxylphenyl]-1-piperazinyl]-phenyl]-2,4-dihydro-2-(1-methylpropyl)-3H-1,2,4-triazol-3-one], the “activity against Aspergillus spp.” value (Aspergillus spp.) is given as “improved activity against Aspergillus spp” and the solubility in water [2] is given as “only very sparingly soluble in water”.
“(+)-[2R-[2α,4α, 4(R)]]-4-[4-[4-[4[[dichlorophenyl)-2-(1H-1,2,4-triazol-1-ylmethyl)-1,3-dioxolan-4-yl]methoxy]phenyl]-1-piperazinyl]phenyl]-2,4-dihydro-2-(1-methylpropyl)-3H-1,2,4-triazol-3-one [Compound 4]” showed a concentration in water [1, 4] of 2.43 mg/100 ml, a concentration in water [1, 5] of 15.84 mg/100 ml and a concentration in water [1, 6] of 41.70 mg/100 ml. For the same compound, the concentration in water [1, 7] was 83.72 mg/100 ml, the concentration in water [1, 8] was 481 mg/100 ml and the concentration in water [1, 9] was 1166 mg/100 ml. For the same compound, the concentration in water [1, 10] was 2017 mg/100 ml.
For “(+)-[2S-[2α, 4α, 4(R)]1-4-[4-[4-[4-[[2-(2,4-dichlor triazol-1-ylmethyl)-1,3-dioxolan-4-yl]methoxy]phenyl]-1-piperazinyl]phenyl]-2,4-dihydro-2-(1-methylpropyl)-3H-1,2,4-triazol-3-one [Compound 3]”, the “concentration of dissolved active ingredient” value ([3]; 5 min.) was 0.005 mg/100 ml, the “concentration of dissolved active ingredient” value ([3]; 15 min.) was 0.037 mg/100 ml and the “concentration of dissolved active ingredient” value ([3]; 30 min.) was 0.15 mg/100 ml. The “concentration of dissolved active ingredient” value ([3]; 1 h.) was 0.32 mg/100 ml, the “concentration of dissolved active ingredient” value ([3]; 2 h.) was 0.69 mg/100 ml and the “concentration of dissolved active ingredient” value ([3]; 3 h.) was 1.09 mg/100 ml. For the same compound, the “concentration of dissolved active ingredient” value ([3]; 4 h.) was 1.41 mg/100 ml, the “concentration of dissolved active ingredient” value ([3]; 6 h.) was 1.94 mg/100 ml and the “concentration of dissolved active ingredient” value ([3]; 26 h.) was 3.93 mg/100 ml. The “concentration of dissolved active ingredient” value ([3]; 46 h.) was 5.08 mg/100 ml, the “concentration of dissolved active ingredient” value ([3]; 51 h.) was 5.39 mg/100 ml and the “concentration of dissolved active ingredient” value ([3]; 69 h.) was 6.36 mg/100 ml.
`CCC(C)n1ncn(-c2ccc(N3CCN(c4ccc(OCC5COC(Cn6cncn6)(c6ccc(Cl)cc6Cl)O5)cc4)CC3)cc2)c1=O` (racemic) [itraconazole, (±)-cis-4-[4-[4-[4-[[2-(2,4-dichlorophenyl)-2-(1H-1,2,4-triazol-1-ylmethyl)-1,3-dioxolan-4-yl]methoxy]phenyl]-1-piperazinylphenyl]-2,4-dihydro-2-(1-methyl-propyl)-3H-1,2,4-triazol-3-one] showed a concentration in water [1, 4] of 0.36 mg/100 ml, a concentration in water [1, 5] of 1.79 mg/100 ml and a concentration in water [1, 6] of 4.74 mg/100 ml. The concentration in water [1, 7] was 10.28 mg/100 ml, the concentration in water [1, 8] was 50 mg/100 ml and the concentration in water [1, 9] was 95 mg/100 ml. The concentration in water [1, 10] was 174 mg/100 ml, the “concentration of dissolved active ingredient” value ([3]; 1 h.) was 0.023 mg/100 ml and the “concentration of dissolved active ingredient” value ([3]; 2 h.) was 0.079 mg/100 ml. The “concentration of dissolved active ingredient” value ([3]; 3 h.) was 0.15 mg/100 ml, the “concentration of dissolved active ingredient” value ([3]; 4 h.) was 0.19 mg/100 ml and the “concentration of dissolved active ingredient” value ([3]; 6 h.) was 0.27 mg/100 ml. The “concentration of dissolved active ingredient” value ([3]; 26 h.) was 0.40 mg/100 ml, the “concentration of dissolved active ingredient” value ([3]; 46 h.) was 0.40 mg/100 ml and the “concentration of dissolved active ingredient” value ([3]; 51 h.) was 0.41 mg/100 ml. The “concentration of dissolved active ingredient” value ([3]; 69 h.) was 0.45 mg/100 ml and the solubility in water [2] was “only very sparingly soluble in water”.
